Reference: patent US20230279025A1, “KRAS G12D INHIBITORS” (Mirati Therapeutics, Inc., priority 2020, published 2023)

The molecules below were run against KRas G12D (Homo sapiens (Human), UniProt P01116, G12D) (assay: KRas G12D Binding Assay (TR-FRET displacement of Cy5 labelled tracer)). Conditions: GDP-loaded KRAS G12D (amino acids 1:169), 60 minute incubation at 22° C.
Chain of KRas G12D (P01116 other isoform, or with tags, fused parts or gaps G12D): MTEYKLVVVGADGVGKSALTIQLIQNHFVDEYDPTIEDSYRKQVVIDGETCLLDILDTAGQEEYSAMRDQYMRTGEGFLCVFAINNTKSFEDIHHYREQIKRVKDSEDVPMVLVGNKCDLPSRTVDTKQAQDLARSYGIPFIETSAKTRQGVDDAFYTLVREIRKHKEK
Experimental: After a 60 minute incubation at 22° C., the reaction was measured using a PerkinElmer EnVision multimode plate reader via TR-FRET dual wavelength detection, and the percent of control (POC) calculated using a ratiometric emission factor. […] The POC values were fit to a 4-parameter logistic curve and the IC50 value was determined as the concentration where the curve crosses 50 POC.
ND stands for “not determined.”
Work on `N#C[C@H]1CCN2CCC[C@@]12COc1nc(N2CC3CCC(C2)N3)c2cnc(-c3cccc4cccc(Cl)c34)c(F)c2n1` (stereo in doubt) [Example 379, 7a-(((4-((1R,5S)-3,8-diazabicyclo[3.2.1]octan-3-yl)-7-(8-chloronaphthalen-1-yl)-8-fluoropyrido[4,3-d]pyrimidin-2-yl)oxy)methyl)hexahydro-1H-pyrrolizine-1-carbonitrile] yielded an IC50 of 249 nM. `CCc1cccc2cc(O)cc(-c3ncc4c(N5C[C@H]6CC[C@@H](C5)N6)nc(OC[C@]56CCCN5[C@@H](COC(=O)NC)CC6)nc4c3F)c12` [Example 433, ((3R,7aR)-7a-(((4-((1R,5S)-3,8-diazabicyclo[3.2.1]octan-3-yl)-7-(8-ethyl-3-hydroxynaphthalen-1-yl)-8-fluoropyrido[4,3-d]pyrimidin-2-yl)oxy)methyl)hexahydro-1H-pyrrolizin-3-yl)methyl methylcarbamate] gave an IC50 of 0.9 nM. `CCc1cccc2cc(O)cc(-c3ncc4c(N5C[C@H]6CC[C@@H](C5)N6)nc(OC[C@@]56CCCN5C[C@H](F)C6)nc4c3F)c12` [Example 259, 4-(4-((1R,5S)-3,8-diazabicyclo[3.2.1]octan-3-yl)-8-fluoro-2-(((2R,7aS)-2-fluorotetrahydro-1H-pyrrolizin-7a(5H)-yl)methoxy)pyrido[4,3-d]pyrimidin-7-yl)-5-ethylnaphthalen-2-ol] was tested, and the IC50 was 0.8 nM. Molecule `Cc1cc2[nH]ncc2c(-c2ncc3c(N4C[C@H]5CC[C@@H](C4)N5)nc(OCC45CCCN4CCC5)nc3c2F)c1C` [Example 249, 4-((1R,5S)-3,8-diazabicyclo[3.2.1]octan-3-yl)-7-(5,6-dimethyl-1H-indazol-4-yl)-8-fluoro-2-((hexahydro-1H-pyrrolizin-7a-yl)methoxy)pyrido[4,3-d]pyrimidine] has an IC50 of 3.5 nM. Work on `CS(=O)(=O)NC[C@H]1CC[C@@]2(COc3nc(N4C[C@H]5CC[C@@H](C4)N5)c4cnc(-c5cccc6cccc(Cl)c56)c(F)c4n3)CCCN12` [Example 420, N-(((3R,7aR)-7a-(((4-((1R,5S)-3,8-diazabicyclo[3.2.1]octan-3-yl)-7-(8-chloronaphthalen-1-yl)-8-fluoropyrido[4,3-d]pyrimidin-2-yl)oxy)methyl)hexahydro-1H-pyrrolizin-3-yl)methyl)methanesulfonamide] yielded an IC50 of 20 nM. `CN1CCC[C@H]1COc1nc(N2CC3CCC(C(N)=O)(C2)N3)c2cnc(-c3cc(O)cc4ccccc34)c(F)c2n1` (stereo partly drawn) [Example 159, 3-(8-fluoro-7-(3-hydroxynaphthalen-1-yl)-2-(((S)-1-methylpyrrolidin-2-yl)methoxy)pyrido[4,3-d]pyrimidin-4-yl)-3,8-diazabicyclo[3.2.1]octane-1-carboxamide bis(2,2,2-trifluoroacetate)] showed an IC50 of 331 nM. For `Oc1c(F)cc(F)c(-c2ncc3c(N4C[C@H]5CC[C@@H](C4)N5)nc(OCC45CCCN4CCC5)nc3c2F)c1F` [Example 350, 3-(4-((1R,5S)-3,8-diazabicyclo[3.2.1]octan-3-yl)-8-fluoro-2-((tetrahydro-1H-pyrrolizin-7a(5H)-yl)methoxy)pyrido[4,3-d]pyrimidin-7-yl)-2,4,6-trifluorophenol], the IC50 was 3820 nM. Work on `O[C@@H]1C[C@@H]2CN(c3nc(OCCn4ccnc4C(F)(F)F)nc4c(F)c(-c5cccc6cccc(Cl)c56)ncc34)C[C@H]1N2` [Example 169, (1R,5R,6R)-3-(7-(8-chloronaphthalen-1-yl)-8-fluoro-2-(2-(2-(trifluoromethyl)-1H-imidazol-1-yl)ethoxy)pyrido[4,3-d]pyrimidin-4-yl)-3,8-diazabicyclo[3.2.1]octan-6-ol] yielded an IC50 of 657 nM. For `CC(C)c1ccncc1-c1ncc2c(N3C[C@H]4CC[C@@H](C3)N4)nc(OCC34CCCN3CCC4)nc2c1F` [Example 306, 4-((1R,5S)-3,8-diazabicyclo[3.2.1]octan-3-yl)-8-fluoro-2-((hexahydro-1H-pyrrolizin-7a-yl)methoxy)-7-(4-isopropylpyridine-3-yl)pyrido[4,3-d]pyrimidine], the IC50 was 260 nM. In the case of `CC(C)c1ncccc1-c1ncc2c(N3C[C@H]4CC[C@@H](C3)N4)nc(OC[C@@]34CCCN3C[C@H](F)C4)nc2c1F` [Example 421, 4-((1R,5S)-3,8-diazabicyclo[3.2.1]octan-3-yl)-8-fluoro-2-(((2R,7aS)-2-fluorohexahydro-1H-pyrrolizin-7a-yl)methoxy)-7-(2-isopropylpyridin-3-yl)pyrido[4,3-d]pyrimidine], the IC50 is reported as 7750 nM. `C#Cc1cccc2cc(OC)cc(-c3ncc4c(N5C[C@H]6CC[C@@H](C5)N6)nc(OCC56CCCN5CCC6)nc4c3F)c12` [Example 231, 4-((1R,5S)-3,8-diazabicyclo[3.2.1]octan-3-yl)-7-(8-ethynyl-3-methoxynaphthalen-1-yl)-8-fluoro-2-((hexahydro-1H-pyrrolizin-7a-yl)methoxy)pyrido[4,3-d]pyrimidine] gave an IC50 of 19.8 nM. In the case of `C#Cc1cccc2cccc(-c3ncc4c(N5CC6CCC(C5)N6)ncnc4c3F)c12` [Example 188, 4-(3,8-diazabicyclo[3.2.1]octan-3-yl)-7-(8-ethynyl-1-naphthyl)-8-fluoro-pyrido[4,3-d]pyrimidine], the IC50 is reported as 1920 nM. With `Fc1c(-c2c(C(F)(F)F)ccc3[nH]ncc23)ncc2c(N3CC4CCC(C3)N4)nc(OCC34CCCN3C[C@H](F)C4)nc12` (mixture of isomers) [Example 343, 4-((1R,5S)-3,8-diazabicyclo[3.2.1]octan-3-yl)-8-fluoro-2-((2-fluorotetrahydro-1H-pyrrolizin-7a(5H)-yl)methoxy)-7-(5-(trifluoromethyl)-1H-indazol-4-yl)pyrido[4,3-d]pyrimidine (racemic, trans)] the IC50 was 10.4 nM. Molecule `O[C@H]1CN2CCC[C@@]2(COc2nc(N3CC4CCC(C3)N4)c3cnc(-c4cccc5cccc(Cl)c45)c(F)c3n2)C1` [Example 223, 7a-(((4-((1R,5S)-3,8-diazabicyclo[3.2.1]octan-3-yl)-7-(8-chloronaphthalen-1-yl)-8-fluoropyrido[4,3-d]pyrimidin-2-yl)oxy)methyl)hexahydro-1H-pyrrolizin-2-ol bis-2,2,2-trifluoroacetate] has an IC50 of 7.1 nM. `CC(C)c1cccc(C(C)C)c1-c1ncc2c(N3C[C@H]4CC[C@@H](C3)N4)nc(OCC34CCCN3CC(F)C4)nc2c1F` (stereo partly drawn) [Example 394, 4-((1R,5S)-3,8-diazabicyclo[3.2.1]octan-3-yl)-7-(2,6-diisopropylphenyl)-8-fluoro-2-((2-fluorotetrahydro-1H-pyrrolizin-7a(5H)-yl)methoxy)pyrido[4,3-d]pyrimidine] gave an IC50 of 2500 nM. `Nc1nccn1CCOc1nc(N2CC3CCC(C2)N3)c2cnc(-c3cccc4cccc(Cl)c34)c(F)c2n1` [Example 178, 1-[2-[7-(8-chloro-1-naphthyl)-4-(3,8-diazabicyclo[3.2.1]octan-3-yl)-8-fluoro-pyrido[4,3-d]pyrimidin-2-yl]oxyethyl]imidazol-2-amine] showed an IC50 of 105 nM. `Fc1c(-c2ccccc2C2CC2)ncc2c(N3C[C@H]4CC[C@@H](C3)N4)nc(OCC34CCCN3CCC4)nc12` [Example 297] showed an IC50 of 88.9 nM. For `Fc1c(-c2cncc3cccc(Cl)c23)ncc2c(N3C[C@H]4CC[C@@H](C3)N4)nc(OC[C@]34CCCN3C[C@@H](F)C4)nc12` [Example 203, 4-((1R,5S)-3,8-diazabicyclo[3.2.1]octan-3-yl)-7-(5-chloroisoquinolin-4-yl)-8-fluoro-2-(((2S,7aR)-2-fluorotetrahydro-1H-pyrrolizin-7a(5H)-yl)methoxy)pyrido[4,3-d]pyrimidine], the IC50 was 28.1 nM.
